pKd: −log10 of the molar value. Entries after “also recorded” stand apart in the source; their conditions may differ.
Experiments:
GST-tagged CDK2 = target: T1, GST-tagged CDK2 (Homo sapiens, UniProt P24941); assay: Surface plasmon resonance (SPR), CDK2; type: binding
T1 construct: The gene encoding human CDK2 (1-298) was custom-synthesized; made in house; host or cells: E. coli BL21 DE3 RIPL

CDK/cyclin complexes = assay: Commercial CDK/cyclin kinase activity panel (Reaction Biology); type: biochemical; conditions: concentration well above its KD
human CDK2 (1-298) = human CDK2 (1-298) (Homo sapiens, UniProt P24941); assay: Isothermal titration calorimetry (ITC)
[1] = target: T2, CDK2 (C118A C177S A93C R157C) (Homo sapiens, UniProt P24941, A93C/C118A/C177S/R157C); assay: Intramolecular FRET assay of CDK2 activation loop position; type: binding
T2 construct: made in house; cyclin A: BL21(DE3)pLysS

Compound: cyclin: Bovine cyclin A (171-432 with a C-terminal 6His tag)
- fold slower dissociation rate than the allosteric inhibitors (GST-tagged CDK2): ≥ 10 fold

Compound: O=C(O)c1cc(C(F)(F)F)ccc1NCCc1c[nH]c2cc(Cl)ccc12 [Compound 4, 2-((2-(6-Chloro-1H-indol-3-yl)ethyl)amino)−5-(trifluoromethyl)benzoic Acid]
- inhibition of CDK/cyclin complexes (CDK/cyclin complexes): poorly inhibits; also recorded: does not substantially inhibit any CDK/cyclin complex
- pKd (human CDK2 (1-298)): 7.51
- T∆S (human CDK2 (1-298); ITC, 25 °C): 4.8 kcal/mol
- n (binding stoichiometry) (human CDK2 (1-298); ITC, 25 °C): 1.39
- ∆H (human CDK2 (1-298); ITC, 25 °C): -5.5 kcal/mol
- pKd [1]: 6.55
